Source: patent US9056874B2, “Complement pathway modulators and uses thereof” (NOVARTIS AG, priority 2012, dated 2015)

What follows are compounds tested against factor B (Homo sapiens, UniProt P00751) (assay: factor B inhibition assay of Biological Example 1). Conditions: IC50 (nM), assay of Biological Example 1 (Table 1).
Assay type: biochemical
Parameters: CVF-Bb complex prepared from purified cobra venom factor (1 μM), recombinant human complement factor B; made in house; host or cells: drosophila cells (factor B); E. coli (factor D used to form the complex)

Sequence of factor B (P00751 260-764 limits assumed): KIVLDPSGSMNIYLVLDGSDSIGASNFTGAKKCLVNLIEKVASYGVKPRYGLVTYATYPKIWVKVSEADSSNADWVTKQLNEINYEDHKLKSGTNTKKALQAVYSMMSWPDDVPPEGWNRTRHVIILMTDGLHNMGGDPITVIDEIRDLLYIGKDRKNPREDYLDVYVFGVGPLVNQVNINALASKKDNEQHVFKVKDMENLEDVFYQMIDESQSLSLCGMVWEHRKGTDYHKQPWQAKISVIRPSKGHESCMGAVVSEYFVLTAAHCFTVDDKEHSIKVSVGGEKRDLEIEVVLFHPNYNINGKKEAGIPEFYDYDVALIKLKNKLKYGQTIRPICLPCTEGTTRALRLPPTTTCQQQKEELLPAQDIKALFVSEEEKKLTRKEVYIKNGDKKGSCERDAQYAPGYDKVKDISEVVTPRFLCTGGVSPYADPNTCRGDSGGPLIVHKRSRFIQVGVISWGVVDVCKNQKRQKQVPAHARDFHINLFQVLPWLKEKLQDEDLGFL
Sequence of factor B (Q91132 23-649 partner limits assumed): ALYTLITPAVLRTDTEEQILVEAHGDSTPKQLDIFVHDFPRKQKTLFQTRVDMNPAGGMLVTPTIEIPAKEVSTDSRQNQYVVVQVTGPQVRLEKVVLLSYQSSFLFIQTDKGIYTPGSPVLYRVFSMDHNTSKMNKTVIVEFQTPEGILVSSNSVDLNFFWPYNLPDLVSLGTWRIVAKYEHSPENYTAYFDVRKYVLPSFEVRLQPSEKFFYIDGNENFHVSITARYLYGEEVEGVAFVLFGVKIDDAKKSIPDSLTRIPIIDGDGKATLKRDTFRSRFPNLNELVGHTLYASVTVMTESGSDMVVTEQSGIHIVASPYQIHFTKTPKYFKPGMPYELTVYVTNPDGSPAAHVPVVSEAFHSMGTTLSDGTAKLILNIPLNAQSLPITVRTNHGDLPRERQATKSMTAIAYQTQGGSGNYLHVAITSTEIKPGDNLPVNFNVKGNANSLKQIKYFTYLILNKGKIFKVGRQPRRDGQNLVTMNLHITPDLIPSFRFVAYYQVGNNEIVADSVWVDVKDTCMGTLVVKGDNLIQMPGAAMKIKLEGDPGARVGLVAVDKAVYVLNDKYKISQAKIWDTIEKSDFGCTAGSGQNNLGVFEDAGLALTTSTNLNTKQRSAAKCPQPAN
Sequence of factor B (Q91132 733-984 partner limits assumed): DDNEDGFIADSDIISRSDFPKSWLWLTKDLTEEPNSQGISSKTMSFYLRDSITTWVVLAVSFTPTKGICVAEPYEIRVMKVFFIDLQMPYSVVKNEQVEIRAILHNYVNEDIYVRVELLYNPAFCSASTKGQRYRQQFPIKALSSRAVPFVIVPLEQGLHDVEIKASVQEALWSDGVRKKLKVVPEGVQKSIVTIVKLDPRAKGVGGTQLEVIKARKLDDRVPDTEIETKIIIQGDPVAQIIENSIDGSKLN
Sequence of factor B (Q91132 1264-1642 partner limits assumed): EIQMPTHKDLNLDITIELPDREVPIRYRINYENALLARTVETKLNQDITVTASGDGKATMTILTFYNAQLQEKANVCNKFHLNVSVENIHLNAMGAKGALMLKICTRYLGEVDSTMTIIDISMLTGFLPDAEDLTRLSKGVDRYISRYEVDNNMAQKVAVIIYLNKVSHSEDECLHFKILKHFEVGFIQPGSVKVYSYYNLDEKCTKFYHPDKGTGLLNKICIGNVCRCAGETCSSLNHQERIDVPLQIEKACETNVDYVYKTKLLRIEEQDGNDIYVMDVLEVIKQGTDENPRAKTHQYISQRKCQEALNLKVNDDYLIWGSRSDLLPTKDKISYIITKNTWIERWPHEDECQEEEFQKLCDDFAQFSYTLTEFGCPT

Row | SMILES | IC50
1 | CCOc1cc(C)c2[nH]ccc2c1C(O)(c1nc2cc(C#N)ccc2[nH]1)C(F)(F)F (single isomer, unassigned) [33-C b) (tr = 5.1 min), 2-(1-(5-ethoxy-7-methyl-1H-indol-4-yl)-2,2,2-trifluoro-1-hydroxyethyl)-1H-benzo[d]imidazole-5-carbonitrile] | 5380 nM
2 | COc1cc(C)c2[nH]ccc2c1C(N)c1nc2cc(C#N)ccc2[nH]1 (single isomer, unassigned) [39-C b) (tr = 24.1 min), (−) or (+)-2-(amino(5-methoxy-7-methyl-1H-indol-4-yl)methyl)-1H-benzo[d]imidazole-5-carbonitrile] | 8 nM
3 | COc1cc(C)c2[nH]ccc2c1C(N)c1nc2cc(C#N)ccc2[nH]1 (single isomer, unassigned) [39-C b) (tr = 30.6 min), (+) or (−)-2-(amino(5-methoxy-7-methyl-1H-indol-4-yl)methyl)-1H-benzo[d]imidazole-5-carbonitrile] | 190 nM
4 | Cc1cc(Br)c(C(C)(O)c2nc3cc(C#N)ccc3[nH]2)c2cc[nH]c12 (single isomer, unassigned) [79-F b) (tr = 2.2 min), (+) or (−)-2-(1-(5-bromo-7-methyl-1H-indol-4-yl)-1-hydroxyethyl)-1H-benzo[d]imidazole-5-carbonitrile] | 60 nM
5 | Cc1cc(Br)c(C(C)(O)c2nc3cc(C#N)ccc3[nH]2)c2cc[nH]c12 (single isomer, unassigned) [79-F b) (tr = 3.8 min), (−) or (+)-2-(1-(5-bromo-7-methyl-1H-indol-4-yl)-1-hydroxyethyl)-1H-benzo[d]imidazole-5-carbonitrile] | 270 nM
6 | Cc1cc(C)c2[nH]cc3c2c1C(O)(c1nc2cc(C#N)ccc2[nH]1)CC3 (single isomer, unassigned) [93-F b) (tr = 7.2 min), (+) or (−)-2-(5-hydroxy-6,8-dimethyl-1,3,4,5-tetrahydrobenzo[cd]indol-5-yl)-1H-benzo[d]imidazole-5-carbonitrile] | 33800 nM
7 | Cc1cc(C)c2[nH]cc3c2c1C(O)(c1nc2cc(C#N)ccc2[nH]1)CC3 (single isomer, unassigned) [93-F b) (tr = 10.2 min), (−) or (+)-2-(5-hydroxy-6,8-dimethyl-1,3,4,5-tetrahydrobenzo[cd]indol-5-yl)-1H-benzo[d]imidazole-5-carbonitrile] | 950 nM
8 | CCc1cc(C)c2[nH]cc3c2c1C(O)(c1nc2cc(C#N)ccc2[nH]1)CC3 (single isomer, unassigned) [94 b) (tr = 4.5 min), (+) or (−)-2-(6-ethyl-5-hydroxy-8-methyl-1,3,4,5-tetrahydrobenzo[cd]indol-5-yl)-1H-benzo[d]imidazole-5-carbonitrile] | 400 nM
9 | CCc1cc(C)c2[nH]cc3c2c1C(O)(c1nc2cc(C#N)ccc2[nH]1)CC3 (single isomer, unassigned) [94 b) (tr = 6.3 min), (−) or (+)-2-(6-ethyl-5-hydroxy-8-methyl-1,3,4,5-tetrahydrobenzo[cd]indol-5-yl)-1H-benzo[d]imidazole-5-carbonitrile] | 1590 nM
10 | Cc1cc(C(C)C)c(C(N)c2nc3cc(C#N)ccc3[nH]2)c2cc[nH]c12 (single isomer, unassigned) [97 b) (tr = 10.5 min), (+) or (−)-2-(amino(5-isopropyl-7-methyl-1H-indol-4-yl)methyl)-1H-benzo[d]imidazole-5-carbonitrile] | 3810 nM
11 | Cc1cc(C(C)C)c(C(N)c2nc3cc(C#N)ccc3[nH]2)c2cc[nH]c12 (single isomer, unassigned) [97 b) (tr = 19.4 min), (−) or (+)-2-(amino(5-isopropyl-7-methyl-1H-indol-4-yl)methyl)-1H-benzo[d]imidazole-5-carbonitrile] | 70 nM
12 | Cc1cc(C)c2[nH]cc(-c3ccccc3)c2c1C(O)c1nc2cc(C#N)ccc2[nH]1 (single isomer, unassigned) [118-C b) (tr = 4.6 min), (+)- or (−)-2-((5,7-dimethyl-3-phenyl-1H-indol-4-yl)(hydroxy)methyl)-1H-benzo[d]imidazole-5-carbonitrile] | 30 nM
13 | Cc1cc(C)c2[nH]cc(-c3ccccc3)c2c1C(O)c1nc2cc(C#N)ccc2[nH]1 (single isomer, unassigned) [118-C b) (tr = 7.9 min), (−) or (+)-2-((5,7-dimethyl-3-phenyl-1H-indol-4-yl)(hydroxy)methyl)-1H-benzo[d]imidazole-5-carbonitrile] | 1750 nM
14 | Cc1cc(C)c2[nH]cc(-c3cnn(C)c3)c2c1C(O)c1nc2cc(C#N)ccc2[nH]1 (single isomer, unassigned) [119 b) (tr = 1.54 min), (+)- or (−)-2-((5,7-dimethyl-3-(1-methyl-1H-pyrazol-4-yl)-1H-indol-4-yl)(hydroxy)methyl)-1H-benzo[d]imidazole-5-carbonitrile] | 130 nM
15 | Cc1cc(C)c2[nH]cc(-c3cnn(C)c3)c2c1C(O)c1nc2cc(C#N)ccc2[nH]1 (single isomer, unassigned) [119 b) (tr = 2.35 min), (−) or (+)-2-((5,7-dimethyl-3-(1-methyl-1H-pyrazol-4-yl)-1H-indol-4-yl)(hydroxy)methyl)-1H-benzo[d]imidazole-5-carbonitrile] | 12600 nM
16 | Cc1cc(C)c2[nH]cc(-c3cccnc3)c2c1C(O)c1nc2cc(C#N)ccc2[nH]1 (single isomer, unassigned) [120 b) (tr = 2.25 min), (+)- or (−)-2-((5,7-dimethyl-3-(pyridin-3-yl)-1H-indol-4-yl)(hydroxy)methyl)-1H-benzo[d]imidazole-5-carbonitrile] | 120 nM
17 | Cc1cc(C)c2[nH]cc(-c3cccnc3)c2c1C(O)c1nc2cc(C#N)ccc2[nH]1 (single isomer, unassigned) [120 b) (tr = 3.20 min), (−) or (+)-2-((5,7-dimethyl-3-(pyridin-3-yl)-1H-indol-4-yl)(hydroxy)methyl)-1H-benzo[d]imidazole-5-carbonitrile] | 29000 nM
18 | Cc1cc(OC(F)F)c(C(C)(O)c2nc3cc(C#N)ccc3[nH]2)c2c(Cl)c[nH]c12 (single isomer, unassigned) [Example 7, (+) or (−)-2-(1-(3-chloro-5-(difluoromethoxy)-7-methyl-1H-indol-4-yl)-1-hydroxyethyl)-1H-benzo[d]imidazole-5-carbonitrile] | 4240 nM
19 | COc1cc(C)c2[nH]cc(Cl)c2c1C(C)(O)c1nc2cc(C#N)ccc2[nH]1 (single isomer, unassigned) [Example 29-A, (−) or (+)-2-(1-(3-Chloro-5-methoxy-7-methyl-1H-indol-4-yl)-1-hydroxyethyl)-1H-benzo[d]imidazole-5-carbonitrile] | 2030 nM
20 | COc1cc(C)c2[nH]cc(Cl)c2c1C(C)(O)c1nc2cc(C#N)ccc2[nH]1 (single isomer, unassigned) [Example 29-B, (+) or (−)-2-(1-(3-chloro-5-methoxy-7-methyl-1H-indol-4-yl)-1-hydroxyethyl)-1H-benzo[d]imidazole-5-carbonitrile] | 2570 nM
21 | Cc1cc(OC(F)F)c(C(O)c2nc3cc(C#N)ccc3[nH]2)c2cc[nH]c12 (single isomer, unassigned; (+)) [3-B b) (+), (+)-2-((5-(difluoromethoxy)-7-methyl-1H-indol-4-yl)(hydroxy)methyl)-1H-benzo[d]imidazole-5-carbonitrile] | 820 nM
22 | Cc1cc(OC(F)F)c(C(C)(N)c2nc3cc(C#N)ccc3[nH]2)c2cc[nH]c12 (single isomer, unassigned; (+)) [5-E b) (+), (+)-2-(1-amino-1-(5-(difluoromethoxy)-7-methyl-1H-indol-4-yl)ethyl)-1H-benzo[d]imidazole-5-carbonitrile] | 420 nM
23 | COC(C)(c1nc2cc(C#N)ccc2[nH]1)c1c(OC(F)F)cc(C)c2[nH]ccc12 (single isomer, unassigned; (+)) [8-B b) (+), (+)-2-(1-(5-(difluoromethoxy)-7-methyl-1H-indol-4-yl)-1-methoxyethyl)-1H-benzo[d]imidazole-5-carbonitrile] | 10 nM
24 | Cc1cc(S(C)(=O)=O)c(C(C)(N)c2nc3cc(C#N)ccc3[nH]2)c2cc[nH]c12 (single isomer, unassigned; (+)) [13-E b) (+), (+)-2-(1-Amino-1-(7-methyl-5-(methylsulfonyl)-1H-indol-4-yl)ethyl)-1H-benzo[d]imidazole-5-carbonitrile] | 250 nM
25 | Cc1cc(S(C)(=O)=O)c(C(O)(c2nc3cc(C#N)ccc3[nH]2)C(F)(F)F)c2cc[nH]c12 (single isomer, unassigned; (+)) [14-D b) (+), (+)-2-(2,2,2-trifluoro-1-hydroxy-1-(7-methyl-5-(methylsulfonyl)-1H-indol-4-yl)ethyl)-1H-benzo[d]imidazole-5-carbonitrile] | 8410 nM
26 | COC(c1nc2cc(C#N)ccc2[nH]1)(c1c(S(C)(=O)=O)cc(C)c2[nH]ccc12)C(F)(F)F (single isomer, unassigned; (+)) [15-D b) (+), (+)-2-(2,2,2-trifluoro-1-methoxy-1-(7-methyl-5-(methylsulfonyl)-1H-indol-4-yl)ethyl)-1H-benzo[d]imidazole-5-carbonitrile] | 32700 nM
27 | CNC(c1nc2cc(C#N)ccc2[nH]1)(c1c(S(C)(=O)=O)cc(C)c2[nH]ccc12)C(F)(F)F (single isomer, unassigned; (+)) [16-B b) (+), (+)-2-(2,2,2-trifluoro-1-(7-methyl-5-(methylsulfonyl)-1H-indol-4-yl)-1-(methylamino)ethyl)-1H-benzo[d]imidazole-5-carbonitrile] | 4740 nM
28 | Cc1cc(S(C)(=O)=O)c(C(N)(c2nc3cc(C#N)ccc3[nH]2)C(F)(F)F)c2cc[nH]c12 (single isomer, unassigned; (+)) [17-B b) (+), (+)-2-(1-amino-2,2,2-trifluoro-1-(7-methyl-5-(methylsulfonyl)-1H-indol-4-yl)ethyl)-1H-benzo[d]imidazole-5-carbonitrile] | 6860 nM
